These results are taken from patent US10464922B2, “Metalloenzyme inhibitor compounds” (NQP 1598 LTD., priority 2015, dated 2019).

≈ marks a conversion by molar mass, not a printed value.

For orientation: MIC means the least concentration at which growth counts as inhibited.

In one experiment the test system is C. albicans (ATCC 90028). In words: Minimum inhibitory concentration, in vitro broth microdilution assay (CLSI M27-A2). It counts as cell-based, Candida albicans. To be noted: Candida albicans, ATCC90028, 48 h, ATCC 90028; about 50% growth reduction; 2 days at 36° C.; range tested 8-0.0078 μg/mL; values given as ranges; read-out: Candida albicans MIC. In short, it runs like this: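 Inoculum of 1×10^3 to 1×10^4 CFU/mL in RPMI-1640+MOPS, exposed to 11 two-fold serial compound concentrations at 2 percent final DMSO, per CLSI M27-A2. After 2 days at 36° C, wells scored visually for growth to give MIC; tested in duplicate.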
For orientation: In broth dilution the organism is exposed to a series of concentrations in liquid medium.

The next experiment deals with A. fumigatus. Put plainly: A. fumigatus MIC at 100% growth inhibition (CLSI M38-A2). The settings on record: Aspergillus fumigatus, 100% growth inhibition; range tested 8-0.0078 μg/mL; values given as ranges; read-out: Aspergillus fumigatus MIC. It counts as cell-based, Aspergillus fumigatus. The protocol: A. fumigatus MICs were determined at 100% growth inhibition following CLSI guidelines at a concentration range of 8-0.0078 μg/mL (CLSI M38-A2).

On to `O=Cc1ccc(N2CCN(c3ccc(-c4ccc(C(F)(F)[C@](O)(Cn5cnnn5)c5ccc(F)cc5F)nc4)cc3)CC2)cc1` [Example 29, (R)-4-(4-(4-(6-(2-(2,4-difluorophenyl)-1,1-difluoro-2-hydroxy-3-(1H-tetrazol-1-yl)propyl)pyridin-3-yl)phenyl)piperazin-1-yl) benzaldehyde], for which the figures for the MIC in the experiment on C. albicans (ATCC 90028) and with A. fumigatus were 0.01 to 0.1 µg/mL (≈ 0.0162 to 0.162 µM) and > 8 µg/mL, respectively.

In the case of `CN(C)Cc1ccc(N2CCN(c3ccc(-c4ccc(C(F)(F)[C@](O)(Cn5cnnn5)c5ccc(F)cc5F)nc4)cc3)CC2)cc1` [Example 30], the MIC was in the range of 0.0078 to 0.01 µg/mL (≈ 0.0121 to 0.0155 µM) in the experiment on C. albicans (ATCC 90028) and 0.25 to 1 µg/mL (≈ 0.387 to 1.55 µM) in the experiment with A. fumigatus.

Take `O=Cc1ccc(N2CCN(c3ccc(-c4ccc(C(F)(F)[C@](O)(Cn5cnnn5)c5ccc(F)cc5F)nc4)cc3)CC2)cn1` [Example 32, (R)-5-(4-(4-(6-(2-(2,4-difluorophenyl)-1,1-difluoro-2-hydroxy-3-(1H-tetrazol-1-yl)propyl)pyridin-3-yl)phenyl)piperazin-1-yl) picolinaldehyde]: the MIC in the experiment with C. albicans (ATCC 90028) lay within 0.1 to 1 µg/mL (≈ 0.162 to 1.62 µM); with A. fumigatus it was 0.25 to 1 µg/mL (≈ 0.404 to 1.62 µM).

In the case of `CN(C)Cc1ccc(N2CCN(c3ccc(-c4ccc(C(F)(F)[C@](O)(Cn5cnnn5)c5ccc(F)cc5F)nc4)cc3)CC2)cn1` [Example 33, (R)-2-(2,4-difluorophenyl)-1-(5-(4-(4-(6-((dimethylamino)methyl)pyridin-3-yl)piperazin-1-yl)phenyl)pyridin-2-yl)-1,1-difluoro-3-(1H-tetrazol-1-yl) propan-2-ol], the figures for the MIC in the experiment on C. albicans (ATCC 90028) and in the experiment with A. fumigatus were 0.01 to 0.1 µg/mL (≈ 0.0154 to 0.154 µM) and 1 to 4 µg/mL (≈ 1.54 to 6.18 µM), respectively.

Regarding `OC(c1ccc(N2CCN(c3ccc(-c4ccc(C(F)(F)[C@](O)(Cn5cnnn5)c5ccc(F)cc5F)nc4)cc3)CC2)nc1)C(F)(F)F` (stereo partly drawn) [Example 34, (2R)-2-(2,4-difluorophenyl)-1,1-difluoro-3-(1H-tetrazol-1-yl)-1-(5-(4-(4-(5-(2,2,2-trifluoro-1-hydroxyethyl)pyridin-2-yl)piperazin-1-yl)phenyl)pyridin-2-yl) propan-2-ol], the results for the MIC with C. albicans (ATCC 90028) and in the experiment on A. fumigatus were 0.0078 to 0.01 µg/mL (≈ 0.0113 to 0.0145 µM) and 0.25 to 1 µg/mL (≈ 0.363 to 1.45 µM), respectively.

On to `O[C@@](Cn1cnnn1)(c1ccc(F)cc1F)C(F)(F)c1ccc(-c2ccc(N3CCN(c4ccc5[nH]c(C(F)(F)F)nc5c4)CC3)cc2)cn1` [Example 35, (R)-2-(2,4-difluorophenyl)-1,1-difluoro-3-(1H-tetrazol-1-yl)-1-(5-(4-(4-(2-(trifluoromethyl)-1H-benzo [d]imidazol-5-yl)piperazin-1-yl)phenyl)pyridin-2-yl) propan-2-ol], for which the figures for the MIC with C. albicans (ATCC 90028) and in the experiment with A. fumigatus were 0.0078 to 0.01 µg/mL (≈ 0.0112 to 0.0143 µM) and 0.25 to 1 µg/mL (≈ 0.358 to 1.43 µM), respectively.

On to `CCC(C(C)O)n1ccc(N2CCN(c3ccc(-c4ccc(C(F)(F)[C@](O)(Cn5cnnn5)c5ccc(F)cc5F)nc4)cc3)CC2)cc1=O` (stereo partly drawn) [Example 37, 4-(4-(4-(6-((R)-2-(2,4-difluorophenyl)-1,1-difluoro-2-hydroxy-3-(1H-tetrazol-1-yl)propyl)pyridin-3-yl)phenyl)piperazin-1-yl)-1-(2-hydroxypentan-3-yl) pyridin-2(1H)-one], for which the values for the MIC with C. albicans (ATCC 90028) and in the experiment on A. fumigatus were 0.01 to 0.1 µg/mL (≈ 0.0144 to 0.144 µM) and > 8 µg/mL, respectively.

Take `CCC(O)c1ccc(N2CCN(c3ccc(-c4ccc(C(F)(F)[C@](O)(Cn5cnnn5)c5ccc(F)cc5F)nc4)cc3)CC2)cc1` (some centres unmarked) [Example 39]: the MIC fell in the range of 0.01 to 0.1 µg/mL (≈ 0.0154 to 0.154 µM) in the experiment on C. albicans (ATCC 90028) and 0.25 to 1 µg/mL (≈ 0.386 to 1.54 µM) in the experiment on A. fumigatus.

For the compound `CC(C)C(O)c1ccc(N2CCN(c3ccc(-c4ccc(C(F)(F)[C@](O)(Cn5cnnn5)c5ccc(F)cc5F)nc4)cc3)CC2)cc1` (stereo partly drawn) [Example 40, 1-(4-(4-(4-(6-((R)-2-(2,4-difluorophenyl)-1,1-difluoro-2-hydroxy-3-(1H-tetrazol-1-yl)propyl)pyridin-3-yl)phenyl)piperazin-1-yl)phenyl)-2-methylpropan-1-ol], the MIC in the experiment on C. albicans (ATCC 90028) was 0.0078 to 0.01 µg/mL (≈ 0.0118 to 0.0151 µM); in the experiment with A. fumigatus it was 0.25 to 1 µg/mL (≈ 0.378 to 1.51 µM).

For the compound `CC(C)CC(O)c1ccc(N2CCN(c3ccc(-c4ccc(C(F)(F)[C@](O)(Cn5cnnn5)c5ccc(F)cc5F)nc4)cc3)CC2)cc1` (stereo partly drawn) [Example 41, 1-(4-(4-(4-(6-((R)-2-(2,4-difluorophenyl)-1,1-difluoro-2-hydroxy-3-(1H-tetrazol-1-yl)propyl)pyridin-3-yl)phenyl)piperazin-1-yl)phenyl)-3-methylbutan-1-ol], the MIC fell in the range of 0.0078 to 0.01 µg/mL (≈ 0.0115 to 0.0148 µM) in the experiment on C. albicans (ATCC 90028) and 0.25 to 1 µg/mL (≈ 0.37 to 1.48 µM) in the experiment with A. fumigatus.

For the compound `OC(c1ccc(N2CCN(c3ccc(-c4ccc(C(F)(F)[C@](O)(Cn5cnnn5)c5ccc(F)cc5F)nc4)cc3)CC2)cc1)C1CC1` (stereo partly drawn) [Example 42, (2R)-1-(5-(4-(4-(4-(cyclopropyl (hydroxy)methyl)phenyl)piperazin-1-yl)phenyl)pyridin-2-yl)-2-(2,4-difluorophenyl)-1,1-difluoro-3-(1H-tetrazol-1-yl) propan-2-ol], the results for the MIC in the experiment with C. albicans (ATCC 90028) and with A. fumigatus were 0.0078 to 0.01 µg/mL (≈ 0.0118 to 0.0152 µM) and > 8 µg/mL, respectively.

On to `CC(C)(C)C(O)c1ccc(N2CCN(c3ccc(-c4ccc(C(F)(F)[C@](O)(Cn5cnnn5)c5ccc(F)cc5F)nc4)cc3)CC2)cc1` (stereo partly drawn) [Example 43, 1-(4-(4-(4-(6-((R)-2-(2,4-difluorophenyl)-1,1-difluoro-2-hydroxy-3-(1H-tetrazol-1-yl)propyl)pyridin-3-yl)phenyl)piperazin-1-yl)phenyl)-2,2-dimethylpropan-1-ol], for which the results for the MIC with C. albicans (ATCC 90028) and in the experiment on A. fumigatus were 0.0078 to 0.01 µg/mL (≈ 0.0115 to 0.0148 µM) and 0.25 to 1 µg/mL (≈ 0.37 to 1.48 µM), respectively.

Turning to `CC(O)c1ccc(N2CCN(c3ccc(-c4ccc(C(F)(F)[C@](O)(Cn5cnnn5)c5ccc(F)cc5F)nc4)cc3)CC2)cn1` (stereo partly drawn) [Example 44, (2R)-2-(2,4-difluorophenyl)-1,1-difluoro-1-(5-(4-(4-(6-(1-hydroxyethyl)pyridin-3-yl)piperazin-1-yl)phenyl)pyridin-2-yl)-3-(1H-tetrazol-1-yl) propan-2-ol], the MIC in the experiment on C. albicans (ATCC 90028) lay within 0.0078 to 0.01 µg/mL (≈ 0.0123 to 0.0158 µM); with A. fumigatus, 1 to 4 µg/mL (≈ 1.58 to 6.3 µM).

Turning to `CC(C)C(O)c1ccc(N2CCN(c3ccc(-c4ccc(C(F)(F)[C@](O)(Cn5cnnn5)c5ccc(F)cc5F)nc4)cc3)CC2)cn1` (stereo partly drawn) [Example 45, 1-(5-(4-(4-(6-((R)-2-(2,4-difluorophenyl)-1,1-difluoro-2-hydroxy-3-(1H-tetrazol-1-yl)propyl)pyridin-3-yl)phenyl)piperazin-1-yl)pyridin-2-yl)-2-methylpropan-1-ol], the MIC with C. albicans (ATCC 90028) is 0.0078 to 0.01 µg/mL (≈ 0.0118 to 0.0151 µM); in the experiment with A. fumigatus it was 0.25 to 1 µg/mL (≈ 0.377 to 1.51 µM).

For `OC(c1ccc(N2CCN(c3ccc(-c4ccc(C(F)(F)[C@](O)(Cn5cnnn5)c5ccc(F)cc5F)nc4)cc3)CC2)cn1)C1CC1` (some centres unmarked) [Example 46], the MIC was 0.0078 to 0.01 µg/mL (≈ 0.0118 to 0.0151 µM) in the experiment on C. albicans (ATCC 90028) and > 8 µg/mL in the experiment on A. fumigatus.

Turning to `CC(C)(O)c1ccc(N2CCN(c3ccc(-c4ccc(C(F)(F)[C@](O)(Cn5cnnn5)c5ccc(F)cc5F)nc4)cc3)CC2)cn1` [Example 47, (R)-2-(2,4-difluorophenyl)-1,1-difluoro-1-(5-(4-(4-(6-(2-hydroxypropan-2-yl)pyridin-3-yl)piperazin-1-yl)phenyl)pyridin-2-yl)-3-(1H-tetrazol-1-yl) propan-2-ol], the MIC lay in the range of 0.01 to 0.1 µg/mL (≈ 0.0154 to 0.154 µM) with C. albicans (ATCC 90028) and 0.25 to 1 µg/mL (≈ 0.385 to 1.54 µM) with A. fumigatus.

Take `CCC(O)c1ccc(N2CCN(c3ccc(-c4ccc(C(F)(F)[C@](O)(Cn5cnnn5)c5ccc(F)cc5F)nc4)cc3)CC2)cn1` (stereo partly drawn) [Example 48, 1-(5-(4-(4-(6-((R)-2-(2,4-difluorophenyl)-1,1-difluoro-2-hydroxy-3-(1H-tetrazol-1-yl)propyl)pyridin-3-yl)phenyl)piperazin-1-yl)pyridin-2-yl)propan-1-ol]: the MIC lay within 0.01 to 0.1 µg/mL (≈ 0.0154 to 0.154 µM) with C. albicans (ATCC 90028) and 0.25 to 1 µg/mL (≈ 0.385 to 1.54 µM) with A. fumigatus.

With `CC(C)CC(O)c1ccc(N2CCN(c3ccc(-c4ccc(C(F)(F)[C@](O)(Cn5cnnn5)c5ccc(F)cc5F)nc4)cc3)CC2)cn1` (stereo partly drawn) [Example 49, 1-(5-(4-(4-(6-((R)-2-(2,4-difluorophenyl)-1,1-difluoro-2-hydroxy-3-(1H-tetrazol-1-yl)propyl)pyridin-3-yl)phenyl)piperazin-1-yl)pyridin-2-yl)-3-methylbutan-1-ol], the MIC in the experiment with C. albicans (ATCC 90028) fell in the range of 0.01 to 0.1 µg/mL (≈ 0.0148 to 0.148 µM); in the experiment on A. fumigatus, 0.062 to 0.25 µg/mL (≈ 0.0916 to 0.369 µM).

For the compound `CC(C)(C)C(O)c1ccc(N2CCN(c3ccc(-c4ccc(C(F)(F)[C@](O)(Cn5cnnn5)c5ccc(F)cc5F)nc4)cc3)CC2)cn1` (stereo partly drawn) [Example 50, 1-(5-(4-(4-(6-((R)-2-(2,4-difluorophenyl)-1,1-difluoro-2-hydroxy-3-(1H-tetrazol-1-yl)propyl)pyridin-3-yl)phenyl)piperazin-1-yl)pyridin-2-yl)-2,2-dimethylpropan-1-ol], the values for the MIC in the experiment with C. albicans (ATCC 90028) and in the experiment with A. fumigatus were 0.01 to 0.1 µg/mL (≈ 0.0148 to 0.148 µM) and 0.25 to 1 µg/mL (≈ 0.369 to 1.48 µM), respectively.

In the case of `OC(CC(F)(F)F)c1ncc(N2CCN(c3ccc(-c4ccc(C(F)(F)[C@](O)(Cn5cnnn5)c5ccc(F)cc5F)nc4)cc3)CC2)cn1` (stereo partly drawn) [Example 51, 1-(5-(4-(4-(6-((R)-2-(2,4-difluorophenyl)-1,1-difluoro-2-hydroxy-3-(1H-tetrazol-1-yl)propyl)pyridin-3-yl)phenyl)piperazin-1-yl)pyrimidin-2-yl)-3,3,3-trifluoropropan-1-ol], the MIC lay in the range of 0.0078 to 0.01 µg/mL (≈ 0.0111 to 0.0142 µM) in the experiment on C. albicans (ATCC 90028) and 1 to 4 µg/mL (≈ 1.42 to 5.68 µM) with A. fumigatus.

Turning to `CC(C)n1ncn(-c2ccc(N3CCN(c4ccc(-c5ccc(C(F)(F)[C@](O)(Cn6cnnn6)c6ccc(F)cc6F)nc5)cc4)CC3)cc2)c1=O` [Example 52, (R)-4-(4-(4-(4-(6-(2-(2,4-difluorophenyl)-1,1-difluoro-2-hydroxy-3-(1H-tetrazol-1-yl)propyl)pyridin-3-yl)phenyl)piperazin-1-yl)phenyl)-2-isopropyl-2,4-dihydro-3H-1,2,4-triazol-3-one], the MIC lay within 0.0078 to 0.01 µg/mL (≈ 0.0109 to 0.014 µM) in the experiment on C. albicans (ATCC 90028) and 0.062 to 0.25 µg/mL (≈ 0.0867 to 0.35 µM) in the experiment with A. fumigatus.

On to `Cn1ncn(-c2ccc(N3CCN(c4ccc(-c5ccc(C(F)(F)[C@](O)(Cn6cnnn6)c6ccc(F)cc6F)nc5)cc4)CC3)cc2)c1=O` [Example 53, (R)-4-(4-(4-(4-(6-(2-(2,4-difluorophenyl)-1,1-difluoro-2-hydroxy-3-(1H-tetrazol-1-yl)propyl)pyridin-3-yl)phenyl)piperazin-1-yl)phenyl)-2-methyl-2,4-dihydro-3H-1,2,4-triazol-3-one], for which the MIC was 0.01 to 0.1 µg/mL (≈ 0.0146 to 0.146 µM) in the experiment with C. albicans (ATCC 90028) and 0.062 to 0.25 µg/mL (≈ 0.0903 to 0.364 µM) in the experiment with A. fumigatus.
